From US12188937B2, “Peptoid compound and detection chip coupled with peptoid compound on the surface” (BEIJING BOE TECHNOLOGY DEVELOPMENT CO., LTD., priority 2019, dated 2025)

Molecular target: T1, EpCAM protein (Homo sapiens, UniProt P16422)
T1 construct: purchased Sino Biological Inc
T1 sequence (P16422 24-314): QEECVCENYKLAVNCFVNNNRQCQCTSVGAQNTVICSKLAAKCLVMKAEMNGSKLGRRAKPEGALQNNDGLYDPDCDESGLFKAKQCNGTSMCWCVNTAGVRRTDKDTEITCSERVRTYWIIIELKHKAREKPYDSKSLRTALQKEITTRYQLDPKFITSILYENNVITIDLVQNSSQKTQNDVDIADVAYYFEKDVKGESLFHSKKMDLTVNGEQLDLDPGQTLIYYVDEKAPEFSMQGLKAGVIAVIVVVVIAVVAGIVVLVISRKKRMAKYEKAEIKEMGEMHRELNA
Assay: surface plasmon resonance imaging (SPRi) test of binding ability of chip-spotted peptoid to EpCAM protein
Settings: EpCAM 5.68-91.2 nM in PBS, binding 300 s, dissociation 300 s, fitted with BIAevalution 4.1, read-out: equilibrium dissociation constant KD

Kd: 18.7 nM
Structure (SMILES): NCCCCNC(=O)CN(CCc1ccc(-c2ccccc2)cc1)C(=O)CN(CCC(=O)O)C(=O)CNCCc1ccccc1 [Formula II]
